Entries after “also recorded” stand apart in the source; their conditions may differ.

One assay deals with Smad 7. Description: Western Blot against Smad7 in rabbit corneal fibroblasts treated with TGF-β. The format is cell-based. Conditions: primary culture; peptide 50 and 200 μg/ml. As for the experimental part: (§1) Therefore, Western Blot and immunofluorescence studies were conducted to determine, from cells extracted from the in vivo studies, the signaling pathway used by the peptides administered topically. It should be emphasized that said studies were conducted on fibroblasts from rabbit cornea and not from rat cornea. This decision was made due to the difficulty entailed in isolating fibroblasts from rodent eyes.
(§2) Since the scientific literature repeatedly describes the TGF-β1 signaling pathways, the decision was made to go into depth in such pathways by means of the techniques described in the methodology section. Said pathways involve the study of the Smad protein family, specifically the study of the isoforms Smad2, 2/3 and 7.
(§3) To that end, protein extracts obtained from the primary culture of rabbit fibroblasts were treated with TGF-β1 at concentrations of 0, 3 and 5 ng/ml and, 50 and 200 μg/ml of peptide p17 and p144.
In general terms: In western blotting, separated proteins are transferred to a membrane and probed.

The subject of the next assay is Smad 2/3. Nature of the assay: Western Blot against Smad2/3 in rabbit corneal fibroblasts. The format is cell-based. Conditions: primary culture; peptide 50 and 200 μg/ml. On the procedure: as §1, §2, §3
The next assay concerns Long-Evans rats. Description: Corneal damage with 1 N NaOH in rats: weekly follow-up of corneal haze and epithelial closure (photographs, ImageJ). Conditions: for chemical lesions induced after corneal damage with 1N NaOH: after treatment, different experimentation groups; for corneal haze, significance treated at the fifth week vs. treated at day 0 / epithelial closure, significance treated at the fifth week vs. treated at day 0: fifth week vs day 0; for corneal haze, significance control vs. peptide / epithelial closure, significance control vs. peptide: Student's t-test; for corneal haze / epithelial closure: treated eye vs control eye, topical eye drops, fifth formulation, 1 N NaOH damage; for epithelial closure: fluorescein. Format: in vivo, rat. The text has this: In this study, domestic hens (Gallus gallus domesticus) aged between 12 and 16 months were initially used as experimental animals but due to the difficulty of the model, especially in relation to obtaining and handling the animals, it was decided to use Long-Evans rats. Furthermore, it was bibliographically verified that these animals are used for in vivo models for studying corneal fibrosis because they allow to follow the evolution of the damage with more precision since they are pigmented rats and, like humans, have a Bowman's membrane.
Male Long-Evans rats aged 10 weeks were used, divided into 5 groups: • Group 1: 12 rats, 6 treated with dexamethasone and 6 treated with mitomycin C. • Group 2: 12 rats, 6 treated with p17 of the first formulation (see section 1.1.2.b) and 6 treated with p144 of the first formulation (see section 1.1.2.b). • Group 3: 12 rats, 6 treated with p17 of the second formulation (see section 1.1.2.b) and 6 treated with p144 of the second formulation (see section 1.1.2.b). • Group 4: 12 rats, 6 treated with p17 of the third formulation (see section 1.1.2.b) and 6 treated with p144 of the third formulation (see section 1.1.2.b). • Group 5: 12 rats, 6 treated with p17 of the fourth formulation (see section 1.1.2.b) and 6 treated with p144 of the fourth formulation (see section 1.1.2.b). • Group 6: 12 rats, 6 treated with p17 of the fifth formulation (see section 1.1.2.b) and 6 treated with p144 of the fifth formulation (see section 1.1.2.b).
To perform the damage in the cornea, the animals were anesthetized with isoflurane and a 5 mm Whatman paper disc impregnated in 1 N NaOH for 30 seconds was applied to them in the central part of the eye. After the damage, they were washed with abundant physiological saline serum and an antibiotic ointment was applied to them to prevent possible infections in the affected area.
After conducting several in vivo studies with the previously described groups of animals, it could be concluded that the chemical damage occurring after the application of NaOH for 30 seconds caused an excessive lesion for the study which was to be conducted, therefore, it was decided to conduct new experiments reducing the time to 15 seconds.
It was randomly established that the left eye of each animal would act as a control and that the right eye would be the treated eye, such that the same animals acts as a control in addition to being treated. It must be pointed out that all the animals received antibiotic treatment in both eyes daily only during the first week of the study for the purposes of avoiding microbial keratitis.
Starting from 0.15% sodium hyaluronate (Hyabak 10 mL, Thea) without preservatives: • p144: 20 mg were dissolved in 5 ml of eye drops, […] of saturated concentrated NaOH were incorporated, stirring and adding in portions of 5 μl. It was sonicated until solubilization. To adjust the pH, 500 μl of 1M HEPES (4-(2-hydroxyethyl)-1-piperazineethanesulfonic acid) were added, such that the pH changed from 10.5 to 7 • p144 control: 40 μl of saturated NaOH and 500 μl of 1 M HEPES (final concentration of HEPES 50 mM) • p17: 20 mg were dissolved in 5 ml of the eye drops, it was sonicated until complete solubilization and it was incorporated to the vial with a 10 ml syringe and a blue needle to perforate the filter of the contained (final concentration 2 mg/ml) • p17 control: non-manipulated eye drops • Note: The formulations were maintained at 4° C. throughout the study.
Therefore, all the results shown in relation to in vivo will refer to this type of treatment.
The administration of the treatment was initiated twenty-four hours after the damage. After that time a follow-up of the damage was performed, which consisted of taking photographs at days 0, 7, 14, 21, 28 and 35. To take the photographs the animals were anesthetized with isoflurane. Photographs were taken of both the control eye (left) and of the treated eye (right) with and without fluorescein. […]

Assay [1] deals with p-Smad2. Description: Immunofluorescence for p-Smad2 on rabbit corneal fibroblasts. The format is cell-based. Conditions: TGF-β1 treated fibroblasts. As for the experimental part: as §1
Assay [2] deals with p-Smad2. Nature of the assay: Western Blot against p-Smad2 in TGF-β1-treated primary culture of rabbit corneal fibroblasts. The format is cell-based. Conditions: for inhibition of the expression of p-Smad2: TGF-β1 treated. On the procedure:
as §1, §2, §3

As to “KRIWFIPRSSWYERA (TGF-beta 1 inhibitor peptide) [p17]”, the “expression of Smad 7” value with Smad 7 was “not modified”. Also, the “expression of Smad 2/3” value in the assay with Smad 2/3 was “not affected; also recorded: not modified”. In addition, in the assay with Long-Evans rats, the “chemical lesions induced after corneal damage with 1N NaOH” value is given as “decreases significantly”; the “corneal haze, significance treated at the fifth week vs. treated at day 0” value is listed as “highly significant”; the “epithelial closure, significance treated at the fifth week vs. treated at day 0” value is on record as “highly significant”; the corneal haze result is “clear decrease; also recorded: significantly reversed”. The epithelial closure entry with Long-Evans rats is given as “clear decrease; also recorded: significantly reversed”. Moreover, in the assay on Long-Evans rats (fifth week), the “corneal haze, significance control vs. peptide” value is “highly significant” and the “epithelial closure, significance control vs. peptide” value is listed as “very significant”. The “translocation of p-Smad2 to the nucleus” value in the assay on p-Smad2 [1] is recorded as “did not inhibit”. Further, the “effect on the signaling cascade of TGF-β1” value in the assay with p-Smad2 [2] (primary culture of rabbit corneal fibroblasts, Smad2, Smad2/3, Smad7) is “does not have any effect”.
Turning to `CO[C@@]12[C@H](COC(N)=O)C3=C(C(=O)C(C)=C(N)C3=O)N1C[C@@H]1N[C@@H]12` [mitomycin C, reference compound], in the assay on Long-Evans rats (first experiment, Group 1), the “clinical efficacy of drugs usually used in the treatment of corneal fibrosis” value is given as “correspond to those described in the scientific literature”.
Consider “TSLDASIIWAMMQN (TGF-beta 1 inhibitor peptide) [p144]”, for which the “expression of Smad 7” value in the assay with Smad 7 was “not modified”. Further, in the assay on Smad 2/3, the “expression of Smad 2/3” value is given as “not affected; also recorded: not modified”. In the assay on Long-Evans rats, the “chemical lesions induced after corneal damage with 1N NaOH” value was “decreases significantly”; the “corneal haze, significance treated at the fifth week vs. treated at day 0” value is recorded as “highly significant”; the “epithelial closure, significance treated at the fifth week vs. treated at day 0” value is listed as “highly significant”; the corneal haze entry was “clear decrease; also recorded: significantly reversed”. In addition, in the assay with Long-Evans rats, the epithelial closure result is listed as “clear decrease; also recorded: significantly reversed”. For the same compound, in the assay on Long-Evans rats (fifth week), the “corneal haze, significance control vs. peptide” value is “highly significant” and the “epithelial closure, significance control vs. peptide” value is given as “highly significant”. The “epithelial closure, significance control vs. peptide” value in the assay on Long-Evans rats (fourth week) was “significant”. Moreover, the “corneal haze, significance control vs. peptide” value with Long-Evans rats (second and fourth week) is recorded as “significant”. Also, in the assay on p-Smad2 [1], the “translocation of p-Smad2 to the nucleus” value is on record as “inhibited”. Moreover, the “inhibition of the expression of p-Smad2” value in the assay with p-Smad2 [2] (peptide 50 μg/ml) was “slight inhibition; also recorded: inhibiting the phosphorylation of Smad2”. In addition, in the assay on p-Smad2 [2] (peptide 200 μg/ml), the “inhibition of the expression of p-Smad2” value is “reaching the values of the controls; also recorded: inhibiting the phosphorylation of Smad2”.

Values taken from patent US20120315256A1, “USE OF TRANSFORMING GROWTH FACTOR - BETA 1 (TGF-B1) INHIBITOR PEPTIDES FOR THE TREATMENT OF CORNEAL FIBROSIS AND/OR HAZE” (DIGNA BIOTECH, S.I., priority 2010, published 2012).
